Values quoted from earlier work in publication PMC3744102 (2010).
“And” between values parts separate entries of the source, which are not always exact repeats. Equal entries are not always repeated. “Also recorded” adds a separate entry of the source.

For Y-G-G-F-L-R-R-I-R-P-K-L-K-W-D-N-Q, the cleaved bond (rhesus monkey blood) is listed as “Arg6-Arg7, major; also recorded: Tyr1-G2, major”, the fragment found (rhesus monkey blood) is listed as 2–6 and 8–17 and 9–17 and 11–17 and 3–17 and 4–17 and the cleaved bond (human blood) is listed as “Arg6-Arg7, major; also recorded: Tyr1-G2, major”. The fragment found (human blood) was 3–17 and 4–17 and 2–6 and 8–17 and 9–17 and 11–17.
